Results taken from ChEMBL document CHEMBL3045029, “Synthesis and antimicrobial activities of some isoxazolyl thiazolyl pyrazoles” (2012).

What was measured:
Format in all cases: functional
Candida albicans = assay: Antifungal activity against Candida albicans MTCC 183 after 48 hr by serial dilution method
Aspergillus niger = assay: Antifungal activity against Aspergillus niger MTCC 282 after 120 hr by serial dilution method
Escherichia coli = assay: Antibacterial activity against Escherichia coli MTCC 42 after 24 hr by serial dilution method
Staphylococcus aureus = assay: Antibacterial activity against Staphylococcus aureus MTCC 7443 after 24 hr by serial dilution method
Bacillus subtilis = assay: Antibacterial activity against Bacillus subtilis MTCC 441 after 24 hr by serial dilution method

C/C(=N\Nc1nc(-c2ccccc2)cs1)c1c(O)cc(C)oc1=O was tested, and the “-logMIC” value (Candida albicans) was 1.435, the “-logMIC” value (Aspergillus niger) was 1.435 and the “-logMIC” value (Escherichia coli) was 1.435. The “-logMIC” value (Staphylococcus aureus) was 1.737 and the “-logMIC” value (Bacillus subtilis) was 1.435.
With C/C(=N\Nc1nc(-c2ccc(C)cc2)cs1)c1c(O)cc(C)oc1=O the “-logMIC” value (Candida albicans) was 1.152, the “-logMIC” value (Aspergillus niger) was 1.435 and the “-logMIC” value (Escherichia coli) was 1.453. The “-logMIC” value (Staphylococcus aureus) was 1.453 and the “-logMIC” value (Bacillus subtilis) was 1.453.
In the case of COc1ccc(-c2csc(N/N=C(\C)c3c(O)cc(C)oc3=O)n2)cc1, the “-logMIC” value (Candida albicans) is reported as 1.171, the “-logMIC” value (Aspergillus niger) is reported as 1.472 and the “-logMIC” value (Escherichia coli) is reported as 1.472. The “-logMIC” value (Staphylococcus aureus) was 1.472 and the “-logMIC” value (Bacillus subtilis) was 1.171.
C/C(=N\Nc1nc(-c2ccc(Cl)cc2)cs1)c1c(O)cc(C)oc1=O was tested, and the “-logMIC” value (Candida albicans) was 1.478, the “-logMIC” value (Aspergillus niger) was 1.478 and the “-logMIC” value (Escherichia coli) was 1.478. The “-logMIC” value (Staphylococcus aureus) was 1.478 and the “-logMIC” value (Bacillus subtilis) was 1.478.
For CC(=O)CC(=O)c1c(C)[nH]n(-c2nc(-c3ccccc3)cs2)c1=O, the “-logMIC” value (Candida albicans) was 1.435, the “-logMIC” value (Aspergillus niger) was 1.435 and the “-logMIC” value (Escherichia coli) was 1.435. The “-logMIC” value (Staphylococcus aureus) was 1.435 and the “-logMIC” value (Bacillus subtilis) was 1.435.
COc1ccc(-c2csc(-n3[nH]c(C)c(-c4cc(C)no4)c3=O)n2)cc1 was tested, and the “-logMIC” value (Candida albicans) was 1.47, the “-logMIC” value (Aspergillus niger) was 1.771 and the “-logMIC” value (Escherichia coli) was 1.47. The “-logMIC” value (Staphylococcus aureus) was 1.771 and the “-logMIC” value (Bacillus subtilis) was 1.771.
With Cc1cc(-c2c(C)[nH]n(-c3nc(-c4ccc(Cl)cc4)cs3)c2=O)on1 the “-logMIC” value (Candida albicans) was 1.477, the “-logMIC” value (Aspergillus niger) was 1.474 and the “-logMIC” value (Escherichia coli) was 1.775. For the same compound, the “-logMIC” value (Staphylococcus aureus) was 2.077 and the “-logMIC” value (Bacillus subtilis) was 1.775.
Cc1cc(-c2c(C)[nH]n(-c3nc(-c4ccccc4)cs3)c2=O)on1 was tested, and the “-logMIC” value (Candida albicans) was 1.432, the “-logMIC” value (Aspergillus niger) was 1.432 and the “-logMIC” value (Escherichia coli) was 1.733. The “-logMIC” value (Staphylococcus aureus) was 1.733 and the “-logMIC” value (Bacillus subtilis) was 1.733.
With Cc1ccc(-c2csc(-n3[nH]c(C)c(-c4cc(C)no4)c3=O)n2)cc1 the “-logMIC” value (Candida albicans) was 1.449, the “-logMIC” value (Aspergillus niger) was 1.75 and the “-logMIC” value (Escherichia coli) was 1.75. The “-logMIC” value (Staphylococcus aureus) was 1.75 and the “-logMIC” value (Bacillus subtilis) was 1.75.
In the case of OC(Cn1cncn1)(Cn1cncn1)c1ccc(F)cc1F [FLUCONAZOLE], the “-logMIC” value (Candida albicans) is reported as 3 and the “-logMIC” value (Aspergillus niger) is reported as 3.
For CCn1cc(C(=O)O)c(=O)c2cc(F)c(N3CCNCC3)cc21 [NORFLOXACIN], the “-logMIC” value (Escherichia coli) was 2.698, the “-logMIC” value (Staphylococcus aureus) was 2.698 and the “-logMIC” value (Bacillus subtilis) was 2.698.
